Experimental data reported in patent publication US20250170140A1, “PHARMACEUTICAL COMPOSITION FOR PREVENTING OR TREATING CANCER COMPRISING CARNITINE ACYLCARNITINE CARRIER INHIBITOR AND PEROXISOMAL BETA OXIDATION INHIBITOR” (priority 2021, published 2025).

Test system: MIA PaCa-2
Assay: SRB assay, cancer cell growth, pancreatic cancer cell line MIA PaCa-2
Format: cell-based
Conditions: MIA PaCa-2
Procedure: As a comparison, omeprazole (KN510) and trimetazidine (KN713), a 3-ketoacyl CoA thiolase inhibitor, were co-treated. […] After cell inoculation, 96-well cell culture plates were incubated for 24 hours before the addition of experimental drugs. […] The cells were then incubated in a CO2 incubator for 48 hours, after which the assay was terminated by the addition of cold TCA. Cells were fixed in situ by gently adding 50 μl of cold 50% (w/v) TCA (final concentration: 10% TCA) and incubated at 4° C. for 60 min. The supernatant was discarded, and the plate was washed five times with distilled water and air dried. Sulforhodamine B (SRB) solution (100 μl) of 0.4% (w/v) in 1% acetic acid was added to each well, and the plate was left at room temperature for 10 min. After staining, unbound dye was removed by washing five times with 1% acetic acid, and the plate was air-dried. The bound dye was then solubilized with 10 mM trizma base, and the absorbance was recorded at 515 nm using an automated plate reader. […] The predicted synergistic activity of a combination of the present invention can be calculated using the Colby Equation in Equation 1 (S.R. Colby, Weeds, 1967, pp. 15, 20-22): α and β are the measured anti-cancer activity of each compound alone, and E is the predicted anti-cancer activity of a mixture of α and β as a prediction. In the present invention, the actual measure of anti-cancer activity of the combination treatment was the inhibition rate of cancer cell growth (%), and the predicted value (E) of the combination treatment was measured by substituting it into the above Colby Equation.

In the case of `COc1ccc(CN2CCNCC2)c(OC)c1OC` [KN713, trimetazidine], the GI50 (Homo sapiens, 48 hours, read-out: GI50 (Half maximal growth inhibition concentration)) is reported as 1810 µM, the “Cancer cell growth rate Average (%)” value (Conc. 10^−2M, Table 1) is reported as −29.68% and the “Cancer cell growth rate Average (%)” value (Conc. 10^−3M, Table 1) is reported as 95.03%. For the same compound, the “Cancer cell growth rate Average (%)” value (Conc. 10^−4M, Table 1) was 95.50%, the “Cancer cell growth rate Average (%)” value (Conc. 10^−5M, Table 1) was 94.52% and the “Cancer cell growth rate Average (%)” value (Conc. 10^−6M, Table 1) was 97.75%. The “Cancer cell growth rate Average (%)” value (Conc. 10^−7M, Table 1) was 97.85% and the “Cancer cell growth rate Average (%)” value (comparative example, Table 3, KN713 2.5 mM) was 88.90%.
